Consider 5 compounds from patent US20070149546A1, “4-Anilino-quinazoline derivatives as antiproliferative agents” (priority 2003, published 2007).

Structures can show the parent of a compound that is named as a salt.

The term IC50 denotes the concentration at which inhibition is half-maximal.

The target in assay [1] is T1, erbB2 (Homo sapiens, UniProt P04626). Briefly: Clone 24 phospho-erbB2 cell assay, Test (e). Type of assay: cell-based. The arrangement: a cell line that overexpresses full length wild type erbB2 protein; expressed in transfected cells; host or cells: MCF7 (breast carcinoma) derived Clone 24 cells. To be noted: inhibition of phosphorylation of erbB2 in a MCF7 (breast carcinoma) derived cell line (Clone 24). The procedure: The cells were resuspended in Growth Medium.
3 days later, Growth Medium was removed from the wells and replaced with 100 ul Assay Medium (phenol red free DM , 2 mM glutamine, 1.2 mg/ml G418) either with or without erbB inhibitor compound. Plates were returned to the incubator for 4 hours and then 20 μl of 20% formaldehyde solution in PBS was added to each well and the plate was left at room temperature for 30 minutes. This fixative solution was removed with a multichannel pipette, 100 μl of PBS was added to each well and then removed with a multichannel pipette and then 50 μl PBS was added to each well. Plates were then sealed and stored for up to 2 weeks at 4° C.
Immunostaining was performed at room temperature. Wells were washed once with 200 μl PBS/Tween 20 (made by adding 1 sachet of PBS/Tween dry powder (Sigma, No. P3563) to 1 L of double distilled H2O) using a plate washer then 200 μl Blocking Solution (5% Marvel dried skimmed milk (Nestle) in PBS/Tween 20) was added and incubated for 10 minutes. Blocking Solution was removed using a plate washer and 200 μl of 0.5% Triton X-100/PBS was added to permeabalise the cells. After 10 minutes, the plate was washed with 200μl PBS/Tween 20 and then 200 μl Blocking Solution was added once again and incubated for 15 minutes. […] Then this primary antibody solution was removed from the wells using a plate washer followed by two 200 μl PBS/Tween 20 washes using a plate washer. […] From now onwards, wherever possible, plates were protected from light exposure, at this stage by sealing with black backing tape. The plates were incubated for 45 minutes and then the secondary antibody solution was removed from the wells followed by two 200 ul PBS/Tween 20 washes using a plate washer. Then 100 μl PBS was added to each plate, incubated for 10 minutes and then removed using a plate washer. Then a further 100 μl PBS was added to each plate and then, without prolonged incubation, removed using a plate washer. Then 50 μl of PBS was added to each well and plates were resealed with black backing tape and stored for up to 2 days at 4° C. before analysis.
The Fluorescence signal is each well was measured using an Acumen Explorer Instrument (Acumen Bioscience Ltd.), a plate reader that can be used to rapidly quantitate features of images generated by laser-scanning. The instrument was set to measure the number of fluorescent objects above a pre-set threshold value and this provided a measure of the phosphorylation status of erbB2 protein. Fluorescence dose response data obtained with each compound was exported into a suitable software package (such as Origin) to perform curve fitting analysis. Inhibition of erbB2 phosphorylation was expressed as an IC50 value.
Target sequence in this assay (P04626 23-1255): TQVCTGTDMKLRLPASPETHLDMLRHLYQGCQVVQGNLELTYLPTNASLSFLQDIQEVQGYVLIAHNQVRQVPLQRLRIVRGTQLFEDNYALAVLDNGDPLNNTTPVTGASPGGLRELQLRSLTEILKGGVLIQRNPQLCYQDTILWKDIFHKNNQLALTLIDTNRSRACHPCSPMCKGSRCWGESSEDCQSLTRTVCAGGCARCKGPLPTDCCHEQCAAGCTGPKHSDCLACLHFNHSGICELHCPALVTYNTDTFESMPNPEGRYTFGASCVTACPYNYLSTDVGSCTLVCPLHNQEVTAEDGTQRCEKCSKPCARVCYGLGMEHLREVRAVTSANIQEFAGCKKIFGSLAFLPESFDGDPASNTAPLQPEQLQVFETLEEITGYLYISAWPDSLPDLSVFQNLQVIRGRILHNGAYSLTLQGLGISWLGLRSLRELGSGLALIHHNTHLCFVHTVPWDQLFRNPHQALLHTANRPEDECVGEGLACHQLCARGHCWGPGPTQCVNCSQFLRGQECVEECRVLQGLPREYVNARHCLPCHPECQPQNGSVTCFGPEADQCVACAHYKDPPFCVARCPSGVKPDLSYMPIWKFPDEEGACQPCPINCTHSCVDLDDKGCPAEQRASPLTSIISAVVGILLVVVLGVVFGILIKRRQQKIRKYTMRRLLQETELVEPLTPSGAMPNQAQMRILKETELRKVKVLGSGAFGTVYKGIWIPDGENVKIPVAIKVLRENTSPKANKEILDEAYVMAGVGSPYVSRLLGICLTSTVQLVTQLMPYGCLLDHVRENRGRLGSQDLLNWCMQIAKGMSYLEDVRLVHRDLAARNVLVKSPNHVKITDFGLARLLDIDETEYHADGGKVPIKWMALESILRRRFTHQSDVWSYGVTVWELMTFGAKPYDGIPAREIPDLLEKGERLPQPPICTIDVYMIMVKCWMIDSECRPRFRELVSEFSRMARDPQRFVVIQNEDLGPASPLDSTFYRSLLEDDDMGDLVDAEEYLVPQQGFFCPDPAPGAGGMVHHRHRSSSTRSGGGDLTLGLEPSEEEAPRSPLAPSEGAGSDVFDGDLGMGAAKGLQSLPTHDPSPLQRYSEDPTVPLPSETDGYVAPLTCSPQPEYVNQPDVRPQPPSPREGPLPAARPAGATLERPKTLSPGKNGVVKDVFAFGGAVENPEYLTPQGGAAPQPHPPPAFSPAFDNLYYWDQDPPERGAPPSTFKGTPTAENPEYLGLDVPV

The target of assay [2] is T2, EGFR kinase (Homo sapiens, UniProt P00533).
T2 construct: Recombinant intracellular fragments of EGFR and erbB2; made in house; host or cells: baculovirus/Sf21 insect cells
T2 sequence (P00533 669-1210 limits assumed): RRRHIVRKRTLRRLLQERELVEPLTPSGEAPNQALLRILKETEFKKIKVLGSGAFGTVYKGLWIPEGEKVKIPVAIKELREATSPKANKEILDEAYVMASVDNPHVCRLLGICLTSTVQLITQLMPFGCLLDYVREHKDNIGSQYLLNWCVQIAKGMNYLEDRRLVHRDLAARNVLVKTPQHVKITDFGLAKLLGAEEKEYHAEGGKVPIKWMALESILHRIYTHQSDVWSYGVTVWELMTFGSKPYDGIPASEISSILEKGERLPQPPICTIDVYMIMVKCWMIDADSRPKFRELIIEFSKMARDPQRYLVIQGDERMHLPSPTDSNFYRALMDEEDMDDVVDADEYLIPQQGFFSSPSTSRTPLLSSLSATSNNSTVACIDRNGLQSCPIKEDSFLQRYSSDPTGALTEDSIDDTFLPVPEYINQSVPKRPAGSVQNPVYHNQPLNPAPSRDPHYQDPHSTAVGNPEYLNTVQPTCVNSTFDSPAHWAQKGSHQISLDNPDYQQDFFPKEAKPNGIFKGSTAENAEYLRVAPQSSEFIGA
Briefly: Protein tyrosine kinase phosphorylation assay, Test (a): EGFR. Particulars: inhibition of phosphorylation of a tyrosine containing polypeptide substrate by EGFR kinase; ATP at Km. It is filed as biochemical. Here is the method:
(§1) This test measures the ability of a test compound to inhibit the phosphorylation of a tyrosine containing polypeptide substrate by an enzyme selected from the EGFR kinase and erbB2 kinase.
(§2) Recombinant intracellular fragments of EGFR and erbB2 (accession numbers X00588 and X03363 respectively) were cloned and expressed in the baculovirus/Sf21 system. Lysates were prepared from these cells by treatment with ice-cold lysis buffer (20 mM N-2-hydroxyethylpiperizine-N′-2-ethanesulfonic acid (HEPES) pH 7.5, 150 mM NaCl, 10% glycerol, 1% Triton X-100, 1.5 mM MgCl2, 1 mM ethylene glycol-bis(β-aminoethyl ether) N′,N′,N′,N′-tetraacetic acid (EGTA), plus protease inhibitors and then cleared by centrifugation.
(§3) Constitutive kinase activity of these recombinant proteins was determined by their ability to phosphorylate a synthetic peptide (made up of a random co-polymer of Glutamic Acid, Alanine and Tyrosine in the ratio of 6:3:1). Specifically, Maxisorb™ 96-well immunoplates were coated with synthetic peptide (0.2 μg of peptide in a 200 μl phosphate buffered saline (PBS) solution and incubated at 4° C. overnight). Plates were washed in 50 mM HEPES pH 7.4 at room temperature to remove any excess unbound synthetic peptide. […] Reactions were terminated by the removal of the liquid components of the assay followed by washing of the plates with PBS-T (phosphate buffered saline with 0.5% Tween 20).
(§4) The immobilised phospho-peptide product of the reaction was detected by immunological methods. Firstly, plates were incubated for 90 minutes at room temperature with anti-phosphotyrosine primary antibodies that were raised in the mouse (4G10 from Upstate Biotechnology). Following extensive washing, plates were treated with Horseradish Peroxidase (HRP) conjugated sheep anti-mouse secondary antibody (NXA931 from Amersham) for 60 minutes at room temperature. After further washing, HRP activity in each well of the plate was measured colorimetrically using 22′-Azino-di-[3-ethylbenzthiazoline sulfonate (6)] diammonium salt crystals (ABTS™ from Roche) as a substrate.
(§5) Kinase inhibition for a given compound was expressed as an IC50 value. […] The range of phosphorylation was calculated from the positive (vehicle plus ATP) and negative (vehicle minus ATP) control values.

Assay [3] has as its target T1, erbB2. Description: Protein tyrosine kinase phosphorylation assay, Test (a): erbB2. It is filed as biochemical. The arrangement: Recombinant intracellular fragments of EGFR and erbB2; made in house; host or cells: baculovirus/Sf21 insect cells. Particulars: inhibition of phosphorylation of a tyrosine containing polypeptide substrate by erbB2 kinase; ATP at Km. Here is the method:
as §1, §2, §3, §4, §5
Target sequence in this assay (P04626 676-1255 limits assumed): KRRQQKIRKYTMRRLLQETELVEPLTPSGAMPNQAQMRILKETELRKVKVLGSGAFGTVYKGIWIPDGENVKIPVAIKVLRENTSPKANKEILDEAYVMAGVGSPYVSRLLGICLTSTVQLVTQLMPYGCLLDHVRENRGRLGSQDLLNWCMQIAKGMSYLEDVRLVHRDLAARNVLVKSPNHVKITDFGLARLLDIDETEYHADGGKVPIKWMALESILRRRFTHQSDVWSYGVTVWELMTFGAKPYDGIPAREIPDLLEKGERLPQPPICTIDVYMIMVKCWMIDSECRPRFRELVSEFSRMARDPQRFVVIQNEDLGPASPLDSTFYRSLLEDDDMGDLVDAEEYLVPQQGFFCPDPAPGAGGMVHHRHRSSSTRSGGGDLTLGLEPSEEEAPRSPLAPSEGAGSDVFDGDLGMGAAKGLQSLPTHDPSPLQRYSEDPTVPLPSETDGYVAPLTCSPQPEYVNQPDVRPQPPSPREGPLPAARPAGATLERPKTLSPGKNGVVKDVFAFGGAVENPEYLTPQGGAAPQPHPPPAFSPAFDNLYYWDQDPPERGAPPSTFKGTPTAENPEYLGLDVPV

In the case of `C[C@H](CN(C)C)Oc1cccc2ncnc(Nc3ccc(OCc4cscn4)c(Cl)c3)c12` [Example 23], the IC50 in assay [1] worked out at 0.001 µM; in assay [2] it was 0.068 µM; in assay [3] it was 0.002 µM.
Consider `COc1cc(Nc2ncnc3cccc(OCCN(C)C)c23)ccc1OCc1cc(C)on1` [Example 37, 5-[2-(Dimethylamino)ethoxy]-N-{3-methoxy-4-[(5-methylisoxazol-3-yl)methoxy]phenyl}quinazolin-4-amine], for which the results for the IC50 in assay [1], in assay [2] and in assay [3] were 0.003 µM, 8.4 µM and 0.017 µM, respectively.
Taken in the same sequence, the figures for `C[C@H](CN(C)C)Oc1cccc2ncnc(Nc3ccc(Sc4nccn4C)c(Cl)c3)c12` [Example 53, N-{3-Chloro-4-[(1-methyl-1H-imidazol-2-yl)thio]phenyl}-5-[(1R)-2-(dimethylamino)-1-methylethoxy]quinazolin-4-amine dihydrochloride] were 0.001 µM, 0.064 µM and 0.005 µM.
Taken in the same sequence, the figures for `COc1cc(Nc2ncnc3cccc(OC(C)CN(C)C)c23)ccc1Oc1ccccc1` (stereo not drawn) [Example 54, 5-[2-(Dimethylamino)-1-methylethoxy]-N-(3-methoxy-4-phenoxyphenyl)quinazolin-4-amine] were 0.003 µM, 4.3 µM and 0.002 µM.
Taken in the same sequence, the figures for `CN(C)CC(C)(C)Oc1cccc2ncnc(Nc3ccc(OCc4ccccn4)c(Cl)c3)c12` [Example 56, N-[3-Chloro-4-(pyridin-2-ylmethoxy)phenyl]-5-[2-(dimethylamino)-1,1-dimethylethoxy]quinazolin-4-amine] were 0.002 µM, 0.49 µM and 0.002 µM.
